Measurements published in US20210227814A1, “A TRANSGENIC INVERTEBRATE MODEL FOR ALZHEIMER'S DISEASE AND USE THEREOF” (National Center for Geriatrics and Gerontology, priority 2017, published 2021).

Legend:
Assay type in all cases: in vivo
[1] = test system: transgenic Drosophila expressing GALT6 and SAT1; assay: LC-MS of GM3 ganglioside production in transgenic Drosophila; settings: Neu5Ac feeding (+) vs (−), 10 mM Neu5Ac/150 mM sucrose solution, heads of adults
Experimental: The obtained Drosophila strains were grown on Ebios Cornmeal Sucrose Agar medium at a temperature of 25° C., and in a light-dark cycle of 12 hours. In order to provide a sialic acid donor substrate Neu5Ac, Drosophila was allowed to freely lick filter paper soaked with a 10 mM Neu5Ac/150 mM sucrose solution for 24 hours every other day for 1 to 2 weeks. In order to check whether GM3 ganglioside is produced in the transgenic Drosophila strains prepared, liquid chromatography mass spectrometry (LC-MS) was carried out. The spectrometry was carried out with respect to the following Drosophila strains: (1) wild type (Neu5Ac feeding (−)) (negative control) (2) transgenic Drosophila expressing GALT6 alone (Neu5Ac feeding (−)), (3) transgenic Drosophila expressing GALT6 and SAT1 (Neu5Ac feeding (−)), (4) transgenic Drosophila expressing GALT6 and SAT1 (Neu5Ac feeding (+)), (5) transgenic Drosophila expressing SAT1 alone (Neu5Ac feeding (+)), and (6) transgenic Drosophila expressing GALT6, SAT1 and GNE (Neu5Ac feeding (−)). For each of the transgenic Drosophila strains, 200 to 1000 heads of adults were collected. To the heads, TBS buffer (50 mM Tris-HCl (pH7.6), 150 mM NaCl) was added, and the mixture was homogenized, and then dried. The obtained pellet was suspended in a solution mixture of chloroform: methanol (v/v=2:1) and a lipid extraction liquid was collected. […]

[2] = test system: transgenic Drosophila strain expressing GALT6, SAT1 and Dut40; assay: Western blotting of aggregated Aβ (TBS insoluble fraction) in brain tissue; settings: Neu5Ac feeding (+) compared to (−), GALT6, SAT1 and Dut40 flies
Experimental: The obtained Drosophila strains were grown on Ebios Cornmeal Sucrose Agar medium at a temperature of 25° C., and in a light-dark cycle of 12 hours. In order to provide a sialic acid donor substrate Neu5Ac, Drosophila was allowed to freely lick filter paper soaked with a 10 mM Neu5Ac/150 mM sucrose solution for 24 hours every other day for 1 to 2 weeks. To confirm whether of GM3 ganglioside-dependent aggregated Aβ is accumulated in the transgenic Drosophila co-expressing GM3 ganglioside and Dut40, a sample prepared from the brain tissue of a transgenic Drosophila strain expressing GALT6, SAT1 and Dut40, was subjected to western blotting. From 100 heads of adults of each of the transgenic Drosophila strain expressing GALT6, SAT1 and Dut40 (Neu5Ac feeding (−)) and the transgenic Drosophila expressing GALT6, SAT1 and Dut40 (Neu5Ac feeding (+)), were collected, homogenized in TBS buffer and subjected to ultracentrifugation (100,000 g, one hour, 4° C.). The supernatant was collected (TBS soluble fraction). The remaining sediment was again homogenized in 100% formic acid and centrifuged (14,000 rpm, 20 minutes, 25° C.) to remove unnecessary components. […] Bands were detected by ECL western blotting detection system (GE Healthcare Life Sciences). The bands detected were analyzed by Image Analysis Software (ImageJ, made by the National Institutes of Health) to convert into numerical values. […]

[3] = test system: transgenic Drosophila strains expressing Dut40; assay: Western blotting of aggregated Aβ in Drosophila expressing only Dut40; settings: Neu5Ac feeding (−) or (+); flies expressing Dut40 only

With `CC(=O)N[C@H]1[C@H]([C@@H](O)[C@@H](O)CO)O[C@@](O)(C(=O)O)C[C@@H]1O` [Neu5Ac] the “production of GM3 ganglioside” value [1] was “confirmed”, the “amount of aggregated Dut40” value [2] was “increased” and the “effect on the aggregation of Dut40” value [3] was “does not have an effect”.
